The molecules below were run against T1, FLuc-C-HiBiT (Photinus pyralis, UniProt P08659) (assay: biochemical). Conditions: enzyme activity, 10 uM ATP; read-out: IC50 or SDR50 (mM) / FLuc E.
T1 construct: firefly luciferase with C-terminal HiBiT tag, E. coli expressed
T1 sequence (P08659 whole entry, looked up): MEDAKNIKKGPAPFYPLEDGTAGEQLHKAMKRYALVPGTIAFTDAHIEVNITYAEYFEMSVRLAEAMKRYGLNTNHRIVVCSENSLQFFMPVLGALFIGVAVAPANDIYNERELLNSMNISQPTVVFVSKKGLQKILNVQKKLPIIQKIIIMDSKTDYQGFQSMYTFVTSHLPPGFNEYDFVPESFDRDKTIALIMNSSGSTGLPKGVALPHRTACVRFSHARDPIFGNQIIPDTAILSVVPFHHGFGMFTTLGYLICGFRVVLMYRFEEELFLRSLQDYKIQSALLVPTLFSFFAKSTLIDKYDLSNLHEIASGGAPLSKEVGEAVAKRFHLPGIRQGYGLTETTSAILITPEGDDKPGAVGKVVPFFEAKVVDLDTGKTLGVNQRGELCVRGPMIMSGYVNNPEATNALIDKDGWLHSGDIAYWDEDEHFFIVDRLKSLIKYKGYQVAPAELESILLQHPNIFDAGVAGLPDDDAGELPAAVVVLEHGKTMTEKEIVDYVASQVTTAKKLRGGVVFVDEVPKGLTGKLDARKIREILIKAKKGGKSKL

Row | Structure (SMILES) | IC50 [µM]
1 | Cc1cnc(CC2CCCN(C(=O)CCc3c[nH]c4ccccc34)C2)n1C(C)C (stereo not drawn) [NCGC00469687-01] | > 30
2 | Cc1ccc(-c2nnc(C3CN(C(=O)c4sc(C)nc4C)CC34CCOCC4)o2)cc1 (stereo not drawn) [NCGC00471668-01] | > 30
3 | Nc1nc2c(nc(O)n2[C@H]2C[C@H](O)[C@@H](CO)O2)c(=O)[nH]1 [NCGC00475978-01] | > 30
4 | COc1ccc(C2=NOC3(CCN([S+](=O)([O-])c4cccs4)C3)C2)cc1 (stereo not drawn) [NCGC00476604-01] | > 30
5 | C=CCNC(=O)c1cccc2c(C)nnn12 [NCGC00477166-01] | > 30
6 | Cc1nnn2c(C(=O)NC3CC3)cccc12 [NCGC00477171-01] | 25.4
7 | CC(C)c1nc2c(c(-c3ccc(O)cc3)n1)CN(Cc1ccccc1)CC2 [NCGC00480075-01] | > 30
8 | CN(C1CCc2ccccc2C1)[S+](=O)([O-])c1cccs1 (stereo not drawn) [NCGC00480121-01] | > 30
9 | CN1CC(=O)N(C2CCCC2)Cc2c1ncnc2N1CCOCC1 [NCGC00480226-01] | > 30
10 | O=C(NCC(F)(F)F)C1CCCN1c1nc2ncccc2o1 (stereo not drawn) [NCGC00480238-01] | > 30
11 | O=C(c1ccc(F)cc1)N1CCn2c(nnc2C2CC2)C1 [NCGC00480252-01] | > 30
12 | CC(C)c1nc2c(c(-c3ccc(O)cc3)n1)CCN(Cc1ccccn1)CC2 [NCGC00480326-01] | > 30
13 | Oc1ccc(-c2nc(C3CC3)nc3c2CCN(Cc2cccc(F)c2)CC3)cc1 [NCGC00480349-01] | > 30
14 | O=C(Nc1ccccc1)N1CCc2nc(C3CC3)nc(-c3ccc(Cl)cc3)c2C1 [NCGC00480419-01] | > 30
15 | COCC(=O)N1CCc2nc(C)nc(-c3ccc(OC)cc3)c2C1 [NCGC00480441-01] | > 30
16 | O=C(c1ccc(C(F)(F)F)cc1)N1CCc2nc(-c3ccccc3)nc(-c3ccc(Cl)cc3)c2C1 [NCGC00480461-01] | > 30
17 | COCCOc1nc(N)c2[nH]c(=O)n(Cc3ccc(C(=O)O)cc3)c2n1 [NCGC00480851-01] | > 30
18 | CCCCOc1nc(N)c2[nH]c(=O)n(Cc3cccc(CC(=O)OC)c3)c2n1 [NCGC00508895-01] | > 30
19 | CCOP(=O)(Cc1ccc(-c2nc3ccccc3s2)cc1)OCC [NCGC00538319-01] | 11.1
20 | O=C(Nc1ccc(-c2nc3ccccc3s2)c(O)c1)c1ccccc1F [NCGC00594666-01] | > 30
21 | COc1cccc(C(=O)Nc2ccc(O)c(-c3nc4ccccc4s3)c2)c1 [NCGC00594707-01] | > 30

Row | Structure (SMILES) | IC50 [µM]
22 | COc1cccc(C(=O)Nc2ccc(-c3nc4ccccc4s3)c(O)c2)c1 [NCGC00594708-01] | > 30
23 | Cc1ccc(C(=O)Nc2ccc(-c3nc4ccccc4s3)c(O)c2)cc1 [NCGC00594710-01] | > 30
24 | O=C(Nc1ccc(-c2nc3ccccc3s2)c(O)c1)c1ccccc1 [NCGC00594711-01] | > 30
25 | Cc1c(NC(=O)c2cccc(Cl)c2Cl)cccc1-c1nc2ccccc2s1 [NCGC00595034-01] | > 30
26 | O=C(Nc1ccc(O)c(-c2nc3ccccc3s2)c1)c1cc2ccccc2o1 [NCGC00595541-01] | > 30
27 | CCCCC(=O)Nc1cc(-c2nc3ccccc3s2)ccc1C [NCGC00596082-01] | > 30
28 | CC(C)C(=O)Nc1cc(-c2nc3ccccc3s2)ccc1Cl [NCGC00596190-01] | > 30
29 | COc1ccc(C(=O)Nc2cccc(-c3nc4ccccc4s3)c2)cc1 [NCGC00596810-02] | > 30
30 | O=C(Nc1ccc(-c2nc3ccccc3s2)cc1)c1c(F)c(F)c(F)c(F)c1F [NCGC00598374-01] | > 30
31 | CN(C)C1CCN(c2ncnc3c2cnn3-c2ccccc2)CC1 [NCGC00608115-01] | > 30
32 | NC(=O)CC1CCN(c2ncnc3c2cnn3-c2ccccc2)CC1 [NCGC00610672-01] | > 30
33 | CC(C)C(=O)NC1CCN(Cc2ccc(-c3nc4cccc(Cl)c4s3)cc2)CC1 [NCGC00632240-01] | > 30
34 | O=C(Nc1ccccc1-c1nc2ccccc2s1)c1ccccc1F [NCGC00636212-01] | > 30
35 | NC(=O)COC(=O)c1ccccc1-c1nc2ccccc2s1 [NCGC00641952-01] | > 30
36 | O=C(O)c1ccccc1-c1nc2ccccc2s1 [NCGC00645508-01] | > 30
37 | OCCN1CCN(c2nc(N3CCCCC3)c3cnn(-c4ccc(Cl)cc4)c3n2)CC1 [NCGC00652352-01] | > 30
38 | Fc1ccc(-n2ncc3c(N4CCCCC4)nc(NN4CCOCC4)nc32)cc1 [NCGC00652353-01] | > 30
39 | Cc1ccc(-n2ncc3c(N4CCCCC4)nc(NCCCO)nc32)cc1 [NCGC00652354-01] | > 30
40 | CCC(CC)COC(=O)[C@H](C)N[P@](=O)(OC[C@H]1O[C@@](C#N)(c2ccc3c(N)ncnn23)[C@H](O)[C@@H]1O)Oc1ccccc1 [NCGC00686694-05] | > 30
41 | O=C(CSc1nnc2ccccn12)Nc1cccc(-c2nc3ccccc3s2)c1 [NCGC00688053-01] | > 30

Continued, values first:

Row | IC50 [µM] | Structure (SMILES)
42 | 12.4 | Cc1cnc(CCNC(=O)Nc2ccc3c(c2)OCCO3)n1Cc1ccc(F)cc1 [NCGC00469838-01]
43 | 9.89 | Cn1c(=O)c2ccnn2c2ccc(C(=O)Nc3ccc4c(c3)OCCO4)cc21 [NCGC00470050-01]
44 | 12.4 | CCNc1cc(N2CCC(CCC(=O)Nc3ccc4c(c3)OCCO4)CC2)ncn1 [NCGC00470231-01]
45 | 9.89 | CCCNc1cc(N2CCC(CCC(=O)Nc3ccc4c(c3)OCCO4)CC2)ncn1 [NCGC00470245-01]
46 | 11.1 | Cc1ccc(NC(=O)Nc2cccn3nc(C)nc23)cc1 [NCGC00470444-01]
47 | 9.89 | CC(C)n1cc2cc(C(=O)Nc3ccc4c(c3)OCCO4)sc2c1 [NCGC00470606-01]
48 | 9.89 | CN1CCCN(C(=O)Nc2ccc3c(c2)OCCO3)c2ccccc21 [NCGC00470832-01]
49 | 12.4 | CCOCC(=O)N1c2ccccc2CC1c1noc(C(C)C)n1 (stereo not drawn) [NCGC00471496-01]
50 | 14 | CC(C)c1nc(C2Cc3ccccc3N2C(=O)NC2CCCC2)no1 (stereo not drawn) [NCGC00471499-01]
51 | 9.89 | O=C(C1CCC1)N1c2ccccc2CC1c1noc(C2CCOCC2)n1 (stereo not drawn) [NCGC00471502-01]
52 | 12.4 | O=C(N1c2ccccc2CC1c1noc(C2CCOCC2)n1)C1(c2ccccc2)CC1 (stereo not drawn) [NCGC00471505-01]
53 | 11.1 | O=C(NC1CCCC1)N1c2ccccc2CC1c1noc(C2CCOCC2)n1 (stereo not drawn) [NCGC00471510-01]
54 | 9.89 | COc1cccc(CNC(=O)N2c3ccccc3CC2c2noc(C3CCOCC3)n2)c1 (stereo not drawn) [NCGC00471511-01]
55 | 15.7 | O=C1CCC2(C(=O)NCCc3ccccc3)CCCC=C2N1c1ccccc1 (stereo not drawn) [NCGC00472135-01]
56 | 1.76 | CCNC(=O)C1C(c2cccc(NC(=O)c3ccc(C)cc3)c2)OC(=O)N1Cc1ccc(F)cc1 (stereo not drawn) [NCGC00473984-01]
57 | 3.94 | CCNC(=O)C1C(c2cccc(NC(=O)c3ccc(OC)cc3)c2)OC(=O)N1Cc1ccc(C)cc1 (stereo not drawn) [NCGC00474207-01]
58 | 2.48 | COc1cccc(-c2nc3ccc(-c4ccc5c(c4)OCO5)cc3o2)c1OC [NCGC00474498-01]
59 | 8.81 | Cc1ccc(CN2C(=O)OC(c3cccc(NC(=O)c4ccc(C)cc4)c3)C2C(=O)NCC(C)C)cc1 (stereo not drawn) [NCGC00475004-01]
60 | 4.42 | CCCNC(=O)C1C(c2cccc(NC(=O)c3ccc(C)cc3)c2)OC(=O)N1Cc1ccc(C)cc1 (stereo not drawn) [NCGC00475006-01]
61 | 2.79 | CCc1ccc(NC(=O)N2CCCC(c3noc(COc4ccccc4)n3)C2)cc1 (stereo not drawn) [NCGC00475587-01]
62 | 11.1 | O=C(Nc1ccc2c(c1)OCCO2)N1CCCC(c2nc(C3CCOCC3)no2)C1 (stereo not drawn) [NCGC00475594-01]
63 | 18 | O=C1CC2(CCN(CC3CC3)CC2)Oc2ccccc21 [NCGC00476832-01]
64 | 18 | O=C1CC2(CCN(CC3CC3)CC2)Oc2cc(Cl)ccc21 [NCGC00476866-01]

Row | IC50 [µM] | Structure (SMILES)
65 | 18 | O=C(Nc1ccc(F)cc1)c1cc2cccnn2n1 [NCGC00477081-01]
66 | 18 | O=C(Nc1cc(Cl)cc(Cl)c1)c1ccn2nccc2c1 [NCGC00477139-01]
67 | 15.7 | O=C(Cc1cccc(Cl)c1)N1CCn2c(nnc2-c2ccccc2)C1 [NCGC00479548-01]
68 | 7 | O=C(NCCc1ccccc1F)c1nc2sccn2c1Br [NCGC00479849-01]
69 | 18 | O=C(NCCC1CCCCC1)c1c[nH]c2ncccc12 [NCGC00480521-01]
70 | 0.157 | Cc1ccc(-n2ncc3c(N4CCCC(C)C4)ncnc32)cc1C (stereo not drawn) [NCGC00523591-01]
71 | 0.785 | CC1CCCN(c2ncnc3c2cnn3-c2cccc(Cl)c2)C1 (stereo not drawn) [NCGC00523592-01]
72 | 7 | Cc1c(NC(=O)c2ccc(I)o2)cccc1-c1nc2ccccc2s1 [NCGC00595010-01]
73 | 0.7 | Cc1c(NC(=O)Cc2ccccc2)cccc1-c1nc2ccccc2s1 [NCGC00595047-01]
74 | 8.81 | CC(=O)Oc1ccccc1C(=O)Nc1ccc(-c2nc3ccc(C)cc3s2)cc1 [NCGC00596510-01]
75 | 1.97 | CCCN1C(=O)c2ccc(-c3nc4ccccc4s3)cc2C1=O [NCGC00597617-01]
76 | 0.624 | Cc1ccc2nc(-c3ccc(NC(=O)CSc4nnc(C)s4)cc3)sc2c1 [NCGC00598135-01]
77 | 1.11 | CC1CCCCN1c1ncnc2c1cnn2-c1ccccc1 (stereo not drawn) [NCGC00605414-01]
78 | 12.4 | OCC1CCN(c2ncnc3c2cnn3-c2ccccc2)CC1 [NCGC00608116-01]
79 | 9.89 | CCOC1CCCN(c2ncnc3c2cnn3-c2ccccc2)C1 (stereo not drawn) [NCGC00616559-01]
80 | 0.394 | OCC1CCCN(c2ncnc3c2cnn3-c2ccccc2)C1 (stereo not drawn) [NCGC00624837-01]
81 | 15.7 | OC1CCN(c2ncnc3c2cnn3-c2ccccc2)CC1 [NCGC00626234-01]
82 | 8.81 | O=C(Nc1cccc(-c2nc3ccccc3s2)c1)N1CCC(O)C1 (stereo not drawn) [NCGC00638360-01]
83 | 2.48 | CSC(=S)Nc1ccc(-c2nc3ccc(C)cc3s2)cc1 [NCGC00640908-01]
84 | 11.1 | NC(=O)C1CCCN(c2ncnc3c2cnn3-c2ccccc2)C1 (stereo not drawn) [NCGC00644764-01]
85 | 4.42 | Cc1cc(Cl)ccc1-n1ncc2c(N3CCCCC3)ncnc21 [NCGC00651954-01]
86 | 0.007 | CNc1ccc2cc(-c3nc4ccc(C(=O)O)cc4s3)ccc2c1 [NCGC00655706-01]
87 | 8.81 | Clc1cccc(-c2nc3ccccc3s2)c1 [NCGC00687703-01]

Reference: article PMC12064818, “A general assay platform to study protein pharmacology using ligand-dependent structural dynamics” (Nature Communications, 2025)
